Data taken from PMC10079235 (PLOS Neglected Tropical Diseases, 2023).
Structures can show the parent of a compound that is named as a salt. Where two headings read alike, the source gives them in different places.

How the values were obtained:
HCT-8/WT cells = experiment: MTS cytotoxicity (drug tolerance) assay; conditions: for TC50: WT cells, no drug selection, MTS assay
Description: (§1) Host cell drug tolerance to specified inhibitors was evaluated by 3-(4,5-dimethylthiazol-2-yl)-5-(3-carboxymethoxyphenyl)-2-(4-sulfophenyl)-2H-tetrazolium (MTS) assay. WT and transgenic host cells were seeded in 96-well plates (10,000 cells/well) and cultured for 24 h, followed by the addition of specified compounds at serially diluted concentrations and continued culture for 41 h. After 3 washes with serum-free medium, MTS solution (Saint-Bio, Shanghai, China) was added into the plates (20 μL/well) and incubated at 37°C for 2 h. Optical density at 490 nm (OD490) was measured using a Synergy LX multi-mode reader (BioTek, Winooski, VT). Drug tolerance was indicated by half-maximal cytotoxic concentrations (TC50 values) calculated by nonlinear regression using 4PL model. Selectivity index (SI) for each compound was determined by the ratio between TC50 and EC50 values (SI = TC50/EC50).

HCT-8/MDR1 cells = experiment: MTS cytotoxicity (drug tolerance) assay; conditions: for TC50: MDR1 cells, no drug selection, MTS assay
HCT-8/WT(PTX) cells = experiment: MTS cytotoxicity (drug tolerance) assay
Description: as §1
(§2) Surviving cells were allowed to recover in drug-free medium for 3–5 d to near confluence (round 1). The selection/recovery cycle were repeated once (round 2). […] The resulting cell lines after PTX or NTZ selection were designated as WT(PTX), NC(PTX) and MDR1(PTX), or WT(NTZ), NC(NTZ) and MDR1(NTZ), respectively (Tables 1 and S2).

HCT-8/NC cells [1] = experiment: MTS cytotoxicity (drug tolerance) assay; conditions: no drug selection
HCT-8/NC(NTZ) cells = experiment: MTS cytotoxicity (drug tolerance) assay
Description: as §1
(§3) Surviving cells were allowed to recover in drug-free medium for 3–5 d to near confluence (round 1). The selection/recovery cycle were repeated once (round 2). […] Finally, all cells were cultured at the final selection concentrations of PTX or NTZ for ≥7 d, followed by culture in drug-free medium for 14 d. At this time point, cells were used for cytotoxicity and efficacy assays or cryopreserved in a liquid nitrogen tank. The resulting cell lines after PTX or NTZ selection were designated as WT(PTX), NC(PTX) and MDR1(PTX), or WT(NTZ), NC(NTZ) and MDR1(NTZ), respectively (Tables 1 and S2).

HCT-8/WT(NTZ) cells = experiment: MTS cytotoxicity (drug tolerance) assay
Description: as §1, §3

HCT-8/NC cells [2] = conditions: human, 41 h
Cryptosporidium parvum = experiment: Anti-cryptosporidial efficacy assay (44-h infection/qRT-PCR); conditions: for EC50: Cryptosporidium parvum; for On-target (Eon) rate at EC50 / Off-target (Eoff) rate at EC50: MDR1(PTX) cell model; for On-target (Eon) rate at EC50: Eq 2; for Off-target (Eoff) rate at EC50: from Pct changes of EC50 and TC50 (Eq 1); for Action on parasite target (on-target) conclusion: MDR1-transgenic host cell model; for Eoff, proportion of off-parasite-target effect / Eon, proportion of on-parasite-target effect: MDR1(PTX) vs. NC model, Eq 3 and 4
HCT-8/NC(PTX) cells = experiment: MTS cytotoxicity (drug tolerance) assay
Description: as §1, §2

HCT-8/MDR1(NTZ) cells = experiment: MTS cytotoxicity (drug tolerance) assay; conditions: for TC50: MDR1(NTZ) cells
Description: as §1, §2

HCT-8/MDR1(PTX) cells = conditions: for TC50: MDR1(PTX) cells; for Pct change of TC50 (vs NC): MDR1(PTX) vs NC cells
Description: as §1, §2

[3] = MDR1, read-out: Antiparasitic efficacy (EC50), C. parvum cultured in MDR1(PTX) host cells
[4] = read-out: Antiparasitic efficacy (EC50), C. parvum cultured in NC host cells
[5] = read-out: Antiparasitic efficacy (EC50), C. parvum cultured in WT host cells
[6] = after selection by PTX vs parent cell line
[7] = after selection by NTZ vs parent cell line

`CN(C)C(=O)C(CCN1CCC(O)(c2ccc(Cl)cc2)CC1)(c1ccccc1)c1ccccc1` [Loperamide, Loperamide HCl] was tested. Which TC50 (HCT-8/WT cells) did it give?
Its TC50 is 15.96 µM.

And the TC50 (HCT-8/MDR1 cells)?
The TC50 was 16.49 µM.

And the TC50 (HCT-8/WT(PTX) cells; WT(PTX) cells, after selection by PTX)?
Its TC50 is 16.42 µM.

And the TC50 (HCT-8/NC cells [1])?
Its TC50 is 16.08 µM.

What about the TC50 (HCT-8/NC(NTZ) cells; NC(NTZ) cells, after selection by NTZ) of the same compound?
Its TC50 is 15.64 µM.

What about the TC50 (HCT-8/WT(NTZ) cells; WT(NTZ) cells, after selection by NTZ) of the same compound?
The TC50 was 16.23 µM.

Which TC50 (HCT-8/NC cells [2]) does the source give for `O=C1c2c(O)ccc(O)c2C(=O)c2c(NCCNCCO)ccc(NCCNCCO)c21` [Mitoxantrone, Mitoxantrone 2HCl] here?
Its TC50 is 4.11 µM.

What about the TC50 (HCT-8/WT cells) of the same compound?
The TC50 was 4.31 µM.

And the TC50 (HCT-8/MDR1 cells)?
Its TC50 is 6.79 µM.

What about the “Fold change of TC50 MDR1/NC” value (HCT-8/MDR1 cells; ratio of TC50, MDR1 vs NC cells) of the same compound?
Its value is 1.65.

What about the EC50 (Cryptosporidium parvum; [3]) of the same compound?
The EC50 was 4.16 µM.

What about the EC50 (Cryptosporidium parvum; [4]) of the same compound?
Its EC50 is 2.04 µM.

What about the EC50 (Cryptosporidium parvum; [5]) of the same compound?
The EC50 was 2.07 µM.

And the “On-target (Eon) rate at EC50” value (Cryptosporidium parvum)?
The value was 39.8%.

What about the “On-target (Eon) rate at EC50” value (Cryptosporidium parvum; listed as MXT) of the same compound?
The value was 39.8%.

What about the “Off-target (Eoff) rate at EC50” value (Cryptosporidium parvum) of the same compound?
The value was 60.2%.

What about the “Action on parasite target (on-target) conclusion” value (Cryptosporidium parvum) of the same compound?
Its value is “partially on-target”.

What about the “Selectivity index (SI)” value (Cryptosporidium parvum; TC50/EC50 in MDR1(PTX) cells) of the same compound?
The value was 2.69.

What about the “Selectivity index (SI)” value (Cryptosporidium parvum; TC50/EC50 in NC cells) of the same compound?
Its value is 2.01.

And the “Selectivity index (SI, k)” value (Cryptosporidium parvum; TC50/EC50 in WT cells)?
Its value is 2.08.

What about the “Eoff, proportion of off-parasite-target effect” value (from here on “Eoff, proportion”) (Cryptosporidium parvum; at EC10) of the same compound?
Its value is 39.80%.

What about the “Eon, proportion of on-parasite-target effect” value (“Eon, proportion” below) (Cryptosporidium parvum; at EC10) of the same compound?
The value was 60.20%.

What about the “Eoff, proportion” value (Cryptosporidium parvum; at EC20) of the same compound?
The value was 47.10%.

What about the “Eon, proportion” value (Cryptosporidium parvum; at EC20) of the same compound?
The value was 52.90%.

And the “Eoff, proportion” value (Cryptosporidium parvum; at EC30)?
The value was 52.00%.

And the “Eon, proportion” value (Cryptosporidium parvum; at EC30)?
The value was 48.00%.

What about the “Eoff, proportion” value (Cryptosporidium parvum; at EC40) of the same compound?
Its value is 56.10%.

What about the “Eon, proportion” value (Cryptosporidium parvum; at EC40) of the same compound?
Its value is 43.90%.

And the “Eoff, proportion” value (Cryptosporidium parvum; at EC50)?
The value was 60.0%.

And the “Eon, proportion” value (Cryptosporidium parvum; at EC50)?
The value was 40.0%.

What about the “Eoff, proportion” value (Cryptosporidium parvum; at EC60) of the same compound?
The value was 63.90%.

What about the “Eon, proportion” value (Cryptosporidium parvum; at EC60) of the same compound?
Its value is 36.10%.

What about the “Eoff, proportion” value (Cryptosporidium parvum; at EC70) of the same compound?
Its value is 68.20%.

And the “Eon, proportion” value (Cryptosporidium parvum; at EC70)?
The value was 31.80%.

What about the “Eoff, proportion” value (Cryptosporidium parvum; at EC80) of the same compound?
Its value is 73.60%.

What about the “Eon, proportion” value (Cryptosporidium parvum; at EC80) of the same compound?
The value was 26.40%.

And the “Eoff, proportion” value (Cryptosporidium parvum; at EC90)?
Its value is 81.90%.

What about the “Eon, proportion” value (Cryptosporidium parvum; at EC90) of the same compound?
Its value is 18.10%.

And the “Fold change of TC50 NC(PTX) vs. NC” value (HCT-8/NC(PTX) cells; [6])?
Its value is 1.06.

And the TC50 (HCT-8/NC(PTX) cells; human, 41 h)?
Its TC50 is 4.34 µM.

And the “Fold change of TC50 WT(PTX) vs. WT” value (HCT-8/WT(PTX) cells; [6])?
Its value is 0.98.

What about the TC50 (HCT-8/WT(PTX) cells; human, 41 h) of the same compound?
Its TC50 is 4.23 µM.

And the TC50 (HCT-8/MDR1(NTZ) cells; after selection by NTZ)?
Its TC50 is 6.74 µM.

And the “Fold increase of TC50 MDR1(NTZ) vs. NC” value (HCT-8/MDR1(NTZ) cells; after selection by NTZ)?
Its value is 1.64.

What about the “Fold increase of TC50 MDR1(NTZ) vs. MDR1” value (HCT-8/MDR1(NTZ) cells; [7]) of the same compound?
The value was 0.99.

And the “Fold increase of TC50 NC(NTZ) vs. NC” value (HCT-8/NC(NTZ) cells; [7])?
Its value is 1.02.

And the TC50 (HCT-8/NC(NTZ) cells; human, 41 h)?
The TC50 was 4.19 µM.

What about the “Fold increase of TC50 WT(NTZ) vs. WT” value (HCT-8/WT(NTZ) cells; [7]) of the same compound?
Its value is 0.96.

What about the TC50 (HCT-8/WT(NTZ) cells; human, 41 h) of the same compound?
The TC50 was 4.15 µM.

And the TC50 (HCT-8/MDR1(PTX) cells; after selection by PTX)?
The TC50 was 11.21 µM.

And the “Pct change of TC50 (vs NC)” value (HCT-8/MDR1(PTX) cells)?
The value was 172.7%.

What about the “Pct change of TC50 (vs NC)” value (HCT-8/MDR1(PTX) cells; listed as MXT) of the same compound?
Its value is 172.7%.

What about the “Fold change of TC50 MDR1(PTX) vs. NC” value (HCT-8/MDR1(PTX) cells; after selection by PTX) of the same compound?
The value was 2.73.

And the “Fold change of TC50 MDR1(PTX) vs. MDR1” value (HCT-8/MDR1(PTX) cells; [6])?
Its value is 1.65.

And the “Fold change of TC50 MDR1(PTX)/NC(PTX)” value (HCT-8/MDR1(PTX) cells; ratio of TC50)?
Its value is 2.58.

How did the TC50 (HCT-8/NC cells [2]) turn out when `CC(=O)O[C@H]1C(=O)[C@@]2(C)[C@H]([C@H](OC(=O)c3ccccc3)[C@]3(O)C[C@H](OC(=O)[C@H](O)[C@@H](NC(=O)c4ccccc4)c4ccccc4)C(C)=C1C3(C)C)[C@]1(OC(C)=O)CO[C@@H]1C[C@@H]2O` [Paclitaxel] was run?
Its TC50 is 12.37 µM.

What about the TC50 (HCT-8/WT cells) of the same compound?
The TC50 was 12.75 µM.

And the “Calculated cytotoxicity at EC50” value (HCT-8/WT cells; percent inhibition of WT host cell growth at the EC50 concentration, calculated with Eq 5 from k and h)?
Its value is 1.92%.

And the TC50 (HCT-8/MDR1 cells)?
Its TC50 is 20.22 µM.

What about the EC50 (Cryptosporidium parvum; [3]) of the same compound?
Its EC50 is 0.29 µM.

And the EC50 (Cryptosporidium parvum; [4])?
Its EC50 is 0.3 µM.

And the EC50 (Cryptosporidium parvum; [5])?
Its EC50 is 0.31 µM.

What about the “Off-target (Eoff) rate at EC50” value (Cryptosporidium parvum) of the same compound?
Its value is -1.2%.

And the “Action on parasite target (on-target) conclusion” value (Cryptosporidium parvum)?
The value was 100% on-target.

And the “Eoff, proportion” value (Cryptosporidium parvum; at EC10)?
Its value is -4.20%.

And the “Eoff, proportion” value (Cryptosporidium parvum; at EC20)?
Its value is -3.30%.

What about the “Eoff, proportion” value (Cryptosporidium parvum; at EC30) of the same compound?
Its value is -2.60%.

And the “Eoff, proportion” value (Cryptosporidium parvum; at EC40)?
The value was -2.10%.

And the “Eoff, proportion” value (Cryptosporidium parvum; at EC50)?
The value was −1.5%.

And the “Eoff, proportion” value (Cryptosporidium parvum; at EC60)?
The value was -1.00%.

And the “Eoff, proportion” value (Cryptosporidium parvum; at EC70)?
The value was -0.40%.

What about the “Eoff, proportion” value (Cryptosporidium parvum; at EC80) of the same compound?
Its value is 0.30%.

What about the “Eoff, proportion” value (Cryptosporidium parvum; at EC90) of the same compound?
The value was 1.50%.

And the TC50 (HCT-8/WT(PTX) cells; human, 41 h)?
Its TC50 is 16.03 µM.

And the TC50 (HCT-8/MDR1(NTZ) cells; after selection by NTZ)?
Its TC50 is 21.94 µM.

What about the TC50 (HCT-8/NC(NTZ) cells; human, 41 h) of the same compound?
Its TC50 is 12.73 µM.

And the TC50 (HCT-8/WT(NTZ) cells; human, 41 h)?
Its TC50 is 12.51 µM.

And the TC50 (HCT-8/MDR1(PTX) cells; after selection by PTX)?
The TC50 was 45.86 µM.

And the “Pct change of TC50 (vs NC)” value (HCT-8/MDR1(PTX) cells)?
Its value is 270.7%.
